In patent US20050070594A1, “Use of angiotensin II receptor antagonists” (Boehringer Ingelheim International GmbH, priority 2003, published 2005):
Counter-ions that a name gives are not always drawn.

What was measured:
[1] = biological target: T1, ligand binding domain of the human PPARgamma2 transcription factor (Gal4 DNA binding domain fusion) (Homo sapiens, UniProt P37231); assay: Luciferase activity in stably transformed PPARgamma reporter cell line (CHO-K1 clone 11); assay type: cell-based; conditions: 24 hours
T1 construct: codes for amino acids 205-505 of the human PPARgamma2 transcription factor; expressed in transfected cells
T1 sequence (P37231 205-505): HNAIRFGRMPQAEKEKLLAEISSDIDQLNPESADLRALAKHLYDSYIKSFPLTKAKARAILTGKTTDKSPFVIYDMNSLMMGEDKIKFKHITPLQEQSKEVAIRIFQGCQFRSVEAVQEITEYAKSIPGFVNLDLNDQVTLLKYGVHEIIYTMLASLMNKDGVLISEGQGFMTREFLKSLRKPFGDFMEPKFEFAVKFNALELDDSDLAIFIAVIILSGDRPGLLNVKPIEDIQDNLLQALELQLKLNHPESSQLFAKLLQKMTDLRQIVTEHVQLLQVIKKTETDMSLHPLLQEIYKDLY
Protocol: The resulting plasmid pFA-CMV/hPPARgamma2-LBD codes N-terminally of the PPARgamma-LBD in the same reading frame for a Gal4 DNA binding domain. In addition the plasmid codes for a neomycin resistance.
The cell line CHO-K1 (ATCC CCL-61) is cotransfected with the plasmids pFA-CMV/hPPARgamma2-LBD and pFR-Luc (Stratagene). pFR-Luc codes for the luciferase gene under the control of a five-times repeated yeast Gal4 binding site. The transfection is carried out with lipofectamine2000 in accordance with the manufacturer's instructions.
After six days' cultivation the cells are passaged and kept in culture for another 10 days. The resulting neomycin-resistant colonies are picked out under the microscope and transferred into 96 well-dishes and cultured.
The test substances are brought to 100 times the desired concentration with a suitable solvent, e.g. DMSO, and diluted 1:100 with the medium placed in the cell culture plate. The solvent used, e.g. DMSO, is used as the background control in the same concentration.
Luminescence is measured after a five minute wait using a Packard TopCount NXT. The luciferase activity is obtained by integrating the relative luciferase units (RLU) of the first ten seconds after the start of measurement.

[2] = biological target: T2, human PPARgamma-ligand binding domain (LBD) (Homo sapiens, UniProt P37231); assay: AlphaScreen: recruiting of biotinylated LXXLL peptide of cofactor CBP to GST-PPARgamma-LBD; assay type: biochemical; conditions: concentrations of up to 50 μM
T2 construct: codes for the amino acids 205-505 of the human PPARgamma2 transcription factor; made in house; host or cells: E. coli BL21(DE3), vector pGEX-4T-1
T2 sequence (P37231 205-505): T1 sequence (P37231 205-505)
Protocol: Protein containing the human PPARgamma-ligand binding domain (LBD) is prepared as a GST fusion protein in E.coli and purified by affinity chromatography. […] The fusion protein is expressed in the E.coli strain BL21(DE3) recommended for pGEX vectors after induction with 0.2 mM IPTG for 4 hours at 25° C. The bacteria are pelleted after the induction and frozen in batches in PBS, pH 7.4. After opening up in a French Press, the dissolved GST-PPARgamma-LBD-fusion protein is purified using a GSTrap column (Pharmacia). Elution is carried out by the addition of 20 mM reduced glutathione.
The GST-PPARgamma-LBD-protein fractions are desalinated using a HiTrap desalting column (Pharmacia) and the protein concentration is determined using a standard assay.
The assay buffer consists of 25 mM Hepes pH7.4, 100 mM NaCl,1 mM DTT, 0.1% Tween-20, 0.1% BSA. […] The final DMSO concentration in the assay is 1% (v/v). A 1% DMSO solution is used as the background control (NSB). The measurement is done using a Packard fusion measuring device.

[3] = biological target: T3, human PPARgamma-ligand binding domain (LBD) (Homo sapiens, UniProt P37231); assay: SPA assay: displacement of 3H-labelled rosiglitazone from GST-PPARgamma-LBD; conditions: NSB 217, Bmax 911
T3 sequence (P37231 205-505): T1 sequence (P37231 205-505)
T3 sequence (P19793 220-461 partner limits assumed): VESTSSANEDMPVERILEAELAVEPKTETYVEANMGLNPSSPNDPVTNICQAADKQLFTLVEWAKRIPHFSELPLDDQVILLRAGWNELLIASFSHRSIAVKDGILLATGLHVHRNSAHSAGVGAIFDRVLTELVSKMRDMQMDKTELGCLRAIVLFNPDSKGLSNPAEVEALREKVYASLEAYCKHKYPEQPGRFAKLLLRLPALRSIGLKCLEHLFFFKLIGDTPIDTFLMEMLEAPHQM
Protocol: Protein containing the human PPARgamma-ligand binding domain (LBD) is prepared as a GST fusion protein in E.coli and purified by affinity chromatography. To do this, a DNA section which codes for the amino acids 205-505 of the human PPARgamma2 transcription factor (cf. Genbank entry U79012) is subcloned via the additionally introduced restriction cutting sites BamH I and Xho I into the expression vector pGEX-4T-1 (Amersham) and the sequence of the section is monitored. […] The bacteria are pelleted after the induction and frozen in batches in PBS, pH 7.4. After opening up in a French Press, the dissolved GST-PPARgamma-LBD-fusion protein is purified using a GSTrap column (Pharmacia). Elution is carried out by the addition of 20 mM reduced glutathione. The GST-PPARgamma-LBD-protein fractions are desalinated using a HiTrap desalting column (Pharmacia) and the protein concentration is determined using a standard assay. Protein containing the human RXRalpha ligand binding domain (LBD) is prepared as a His tag fusion protein in E.coli and purified by affinity chromatography. To do this a DNA section which codes for the amino acids 220-461 of the human RXRalpha transcription factor (cf. Genbank entry NM_002957, nt 729-1457) is subcloned via the additionally introduced restriction cutting sites BamH I and Not I into the expression vector pET28c (Novagen) and the sequence of the section is monitored. […] The bacteria are pelleted after the expression and frozen in batches in PBS, pH 7.4. After opening up in a French Press, the dissolved His-RXRalpha-LBD-fusion protein is purified using a HiTrap chelating column (Pharmacia). Elution is carried out using a 500 mM imidazole step. The His-RXRalpha-LBD protein fractions are desalinated using a HiTrap desalting column (Pharmacia) and the protein concentration is determined using a standard assay. A description of the SPA assay format can be found in Mukheriee R et al., J Steroid Biochem Mol Biol (2002) 81:217-225.

[4] = animal model; cited from earlier work
[5] = tested on: Adipose Protein 2 (aP2) expression; assay: Stimulation of aP2 expression in 3T3-L1 cells (real time PCR); assay type: cell-based, mouse; conditions: 10 μmol/L
Source text: 3T3-L1 mouse preadipocytes are cultivated in DMEM (Dulbecco's modified eagle medium) with 10% foetal calf serum (FBS). PC12W cells are cultivated in DMEM with 5% FBS and 10% equine serum. In both cases the media contain 1% penicillin/streptomycin.
The differentiation of adipocytes is induced 2-3 days after cell confluence by adding a differentiating solution. This contains • 1 μmol/L of dexamethasone, • 0.5 mmol/L of 3-isobutyl-1-methylxanthine, • 1.67 μmol/L of insulin, and • 10% FBS.
Then the cells are stimulated for another 48 hours before finally being analysed (day 4).
RNA isolation, reverse transcription and quantification of gene expression are carried out using an ABI 7000 sequence detection system-for real time PCR (described in Janke et al, Diabetes 51:1699-707, 2002). The endogenous control used for the real time PCR consists of the household genes 18S rRNA and hypoxanthine guanine phosphoribosyl transferase (hprt).

[6] = Dissolution of active substances from tablets; assay type: physicochemical; conditions: 900 ml 0.1 M phosphate buffer pH 7.5, 75 rpm

SMILES | luciferase activity (MW) ([1]; 1.00E−04 M) | luciferase activity (MW) ([1]; 1.00E−05 M) | luciferase activity (MW) ([1]; 1.00E−06 M) | luciferase activity (MW) ([1]; 3.00E−05 M) | luciferase activity (MW) ([1]; 3.00E−06 M) | luciferase activity (MW) ([1]; 3.00E−07 M) | direct activation of the PPARgamma-LBD / recruiting of the LXXLL peptide [2] | SPA signal, bound 3H-rosiglitazone (MW) ([3]; 1.00E−04 M test substance) | SPA signal, bound 3H-rosiglitazone (MW) ([3]; 1.00E−05 M test substance) | SPA signal, bound 3H-rosiglitazone (MW) ([3]; 1.00E−06 M test substance) | SPA signal, bound 3H-rosiglitazone (MW) ([3]; 1.00E−07 M test substance) | SPA signal, bound 3H-rosiglitazone (MW) ([3]; 3.00E−05 M test substance) | SPA signal, bound 3H-rosiglitazone (MW) ([3]; 3.00E−06 M test substance) | SPA signal, bound 3H-rosiglitazone (MW) ([3]; 3.00E−07 M test substance) | insulin sensitivity [4] | stimulation of aP2 expression, factor [5] | dissolved after 30 minutes ([6]; first batch) | dissolved after 30 minutes ([6]; second batch) | dissolved after 30 minutes ([6]; third batch)
CCCCC1=NC2(CCCC2)C(=O)N1Cc1ccc(-c2ccccc2-c2nnn[nH]2)cc1 [irbesartan] | 29600 RLU | 3292 RLU | 657 RLU | 22133 RLU | 1028 RLU | 491 RLU | does not result in any direct activation | 510 | 723 | 815 | 913 | 648 | 779 | 810 | Improvement to the insulin sensitivity |  |  |  | 
CCCCc1nc(Cl)c(CO)n1Cc1ccc(-c2ccccc2-c2nn[nH]n2)cc1 [losartan] | 11322 RLU | 709 RLU | 589 RLU | 3271 RLU | 672 RLU | 874 RLU | does not result in any direct activation | 611 | 787 | 901 | 915 | 784 | 814 | 835 |  |  |  |  | 
CCc1ccc(CCOc2ccc(CC3SC(=O)NC3=O)cc2)nc1 (stereo not drawn) [pioglitazone] |  |  |  |  |  |  |  |  |  |  |  |  |  |  |  | 4.5±1 |  |  | 
CCCc1nc2c(C)cc(-c3nc4ccccc4n3C)cc2n1Cc1ccc(-c2ccccc2C(=O)O)cc1 [telmisartan sodium salt] |  |  |  |  |  |  |  |  |  |  |  |  |  |  |  |  | 92±1.5% | 96±1.8% | 100±1.0%
